For data set [1], the target named is Poly [ADP-ribose] polymerase 1 (Homo sapiens, UniProt P09874). The data set can be described thus: Inhibition of GST-tagged PARP1(unknown origin) in presence of activated DNA incubated for 60 mins by microplate reader analysis.
For data set [2], the target named is Cyclin-dependent kinase 6 (Homo sapiens, UniProt Q00534). The data set can be described thus: Inhibition of full length N-terminal human recombinant CDK6 expressed in baculovirus sf9 cells in presence of ATP by ADP-glo kinase assay. On the technique in general: In ADP-Glo the light output rises with the ADP produced.
Another data set has as its system MDA-MB-231. The data set can be described thus: Antiproliferative activity against human MDA-MB-231 cells assessed as cell viability incubated for 48 hrs by MTT assay. The format is functional, cell-based. To be noted: MDA-MB-231, 48 h. A general note: Tetrazolium assays rely on reduction of a dye to a coloured formazan, in cell work by metabolically active cells.

The test system of a further data set is MDA-MB-468. Nature of the data set: Antiproliferative activity against human MDA-MB-468 cells assessed as cell viability incubated for 48 hrs by MTT assay. The format is functional, cell-based. To be noted: MDA-MB-468, 48 h.
A further data set has as its system HCC1937. Nature of the data set: Antiproliferative activity against human HCC1937 cells harboring BRCA1 mutant assessed as cell viability incubated for 48 hrs by MTT assay. Type of data set: functional, cell-based. The conditions noted are these: HCC1937, 48 h.
In a further data set the test system is HCT-116. The data set can be described thus: Antiproliferative activity against human HCT-116 cells harboring BRCA2 mutant assessed as cell viability incubated for 48 hrs by MTT assay. Type of data set: functional, cell-based. To be noted: HCT-116, 48 h.
The nature of data set [3]: Cytotoxicity against human MCF-10A cells assessed as cell viability incubated for 48 hrs by MTT assay. Type of data set: toxicity, cell-based.
Data set [4] can be described thus: Selectivity index, ratio of IC50 for antiproliferative activity against human HCC1937 cells harboring BRCA1 mutant assessed as cell viability to IC50 for antiproliferative activity against human MDA-MB-231 cells assessed as cell viability. The format is functional.

The structures appear in SMILES notation.

From ChEMBL document CHEMBL6182933, “Design and Synthesis of PARP/CDK6 Dual-Target Inhibitors Modulating of Wnt/β-Catenin Signaling Pathway for the Treatment of BRCA Wild-Type TNBC” (J Med Chem, 2025) come the findings set out here.

For orientation: IC50 means the point on the concentration scale where inhibition reaches its midpoint.

Chain of Poly [ADP-ribose] polymerase 1 (P09874 whole entry): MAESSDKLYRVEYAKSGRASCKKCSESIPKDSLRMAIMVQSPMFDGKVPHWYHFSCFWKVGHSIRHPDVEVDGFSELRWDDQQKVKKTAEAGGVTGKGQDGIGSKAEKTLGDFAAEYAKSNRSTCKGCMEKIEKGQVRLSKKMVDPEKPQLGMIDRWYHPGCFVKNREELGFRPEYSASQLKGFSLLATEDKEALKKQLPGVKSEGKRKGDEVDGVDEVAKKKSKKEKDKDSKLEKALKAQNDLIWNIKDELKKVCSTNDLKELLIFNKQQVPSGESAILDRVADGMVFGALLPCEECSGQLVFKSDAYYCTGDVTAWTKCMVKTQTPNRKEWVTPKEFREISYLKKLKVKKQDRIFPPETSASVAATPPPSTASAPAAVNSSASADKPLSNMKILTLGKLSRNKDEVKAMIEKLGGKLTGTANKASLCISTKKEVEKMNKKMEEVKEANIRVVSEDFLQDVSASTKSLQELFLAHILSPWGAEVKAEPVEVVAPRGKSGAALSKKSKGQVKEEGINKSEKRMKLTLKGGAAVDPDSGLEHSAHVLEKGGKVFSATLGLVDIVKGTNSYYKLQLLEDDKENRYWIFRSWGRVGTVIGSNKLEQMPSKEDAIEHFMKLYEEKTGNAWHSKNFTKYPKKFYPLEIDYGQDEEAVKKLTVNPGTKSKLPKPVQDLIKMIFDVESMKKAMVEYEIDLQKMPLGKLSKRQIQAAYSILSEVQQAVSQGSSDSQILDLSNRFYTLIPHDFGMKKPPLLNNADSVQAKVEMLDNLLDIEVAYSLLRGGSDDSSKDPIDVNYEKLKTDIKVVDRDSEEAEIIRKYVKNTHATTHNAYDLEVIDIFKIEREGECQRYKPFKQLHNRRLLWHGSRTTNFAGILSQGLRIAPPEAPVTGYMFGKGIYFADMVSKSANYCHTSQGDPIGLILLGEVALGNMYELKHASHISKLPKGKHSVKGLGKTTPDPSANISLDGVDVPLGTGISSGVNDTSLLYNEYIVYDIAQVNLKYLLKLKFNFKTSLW
Chain of Cyclin-dependent kinase 6 (Q00534 whole entry): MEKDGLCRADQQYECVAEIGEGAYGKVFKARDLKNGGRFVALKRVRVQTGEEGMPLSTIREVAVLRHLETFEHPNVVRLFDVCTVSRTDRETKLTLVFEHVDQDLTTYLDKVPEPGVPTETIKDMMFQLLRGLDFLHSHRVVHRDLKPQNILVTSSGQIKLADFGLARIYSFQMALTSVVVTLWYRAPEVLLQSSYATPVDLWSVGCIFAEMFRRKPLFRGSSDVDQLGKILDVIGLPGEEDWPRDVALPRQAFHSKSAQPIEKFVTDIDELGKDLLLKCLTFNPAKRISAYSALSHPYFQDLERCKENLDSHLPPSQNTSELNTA

For `CN(C)C(=O)c1cc2cnc(Nc3ccc(C(=O)N4CCC(c5nc6c(C(N)=O)cccc6[nH]5)C4)cc3Cl)nc2n1C1CCCC1` (stereo not drawn), the concentration for half-maximal inhibition (IC50) came to 113 nM in data set [1]; 45.6 nM in data set [2]; 1590 nM with MDA-MB-231; 4390 nM with MDA-MB-468; 8720 nM with HCC1937; 2020 nM with HCT-116. Also, the IC50 at 48 h in data set [3] was found to be 930 nM. The “Ratio IC50” value in data set [4] is 5.48.
